# Experimental data from BindingDB's records for doi:10.1021/acs.jmedchem.6b01065 (2017).
# Target: T1, Mineralocorticoid receptor (Homo sapiens, UniProt P08235)
# T1 sequence (P08235 whole entry): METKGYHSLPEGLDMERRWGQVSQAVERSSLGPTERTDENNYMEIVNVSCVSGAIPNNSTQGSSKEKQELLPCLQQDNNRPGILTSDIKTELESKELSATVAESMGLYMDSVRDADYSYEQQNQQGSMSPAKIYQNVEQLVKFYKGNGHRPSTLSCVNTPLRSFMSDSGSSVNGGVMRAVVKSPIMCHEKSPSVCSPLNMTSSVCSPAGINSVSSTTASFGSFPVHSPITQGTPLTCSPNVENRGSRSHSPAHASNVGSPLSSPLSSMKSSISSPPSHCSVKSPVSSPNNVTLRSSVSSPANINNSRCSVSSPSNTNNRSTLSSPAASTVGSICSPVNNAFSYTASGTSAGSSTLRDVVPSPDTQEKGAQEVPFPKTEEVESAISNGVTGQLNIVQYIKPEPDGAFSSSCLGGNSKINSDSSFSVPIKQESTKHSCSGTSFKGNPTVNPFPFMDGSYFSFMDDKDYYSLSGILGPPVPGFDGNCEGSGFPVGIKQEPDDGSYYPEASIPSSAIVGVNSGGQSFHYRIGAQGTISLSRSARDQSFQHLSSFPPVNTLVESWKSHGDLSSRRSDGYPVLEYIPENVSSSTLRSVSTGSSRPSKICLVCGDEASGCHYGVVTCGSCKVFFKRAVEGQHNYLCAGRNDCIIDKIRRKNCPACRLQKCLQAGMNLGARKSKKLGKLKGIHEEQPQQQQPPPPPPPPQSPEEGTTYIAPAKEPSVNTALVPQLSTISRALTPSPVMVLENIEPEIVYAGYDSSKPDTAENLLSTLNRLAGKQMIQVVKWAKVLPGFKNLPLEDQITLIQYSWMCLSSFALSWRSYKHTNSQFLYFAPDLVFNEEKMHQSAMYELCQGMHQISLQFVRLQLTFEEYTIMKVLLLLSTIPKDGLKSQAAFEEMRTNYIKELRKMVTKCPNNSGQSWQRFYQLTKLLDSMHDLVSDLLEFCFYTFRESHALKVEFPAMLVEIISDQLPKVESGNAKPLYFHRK
# Test: Antagonist activity at Gal4-fused human MR LBD (671 to 984 residues) expressed in African Green Monkey CV-1 cells assessed as inhibition of aldosterone-induced transactivation activity after 20 hrs by luciferase reporter gene assay
smiles,measurement,value
Cc1c(C(=O)Nc2ccc(S(C)(=O)=O)cc2)cc(CCO)n1-c1ccc(Cl)cc1C(F)(F)F,IC50,3.7 nM
